Measured values taken from PMC12495306 (RSC Medicinal Chemistry, 2025).
pKi: −log10 of the molar value.

Tests used:
mice [1] = details: cited from earlier work
ARα2B [2] = biological target: T1, ARα2B (Homo sapiens, UniProt P18089); test: ARα2B radioligand; assay type: binding; details: for inhibition at 10 µM: read-out: ARα2B binding (% inhibition at 10 μM)
T1 sequence (P18089 1-450): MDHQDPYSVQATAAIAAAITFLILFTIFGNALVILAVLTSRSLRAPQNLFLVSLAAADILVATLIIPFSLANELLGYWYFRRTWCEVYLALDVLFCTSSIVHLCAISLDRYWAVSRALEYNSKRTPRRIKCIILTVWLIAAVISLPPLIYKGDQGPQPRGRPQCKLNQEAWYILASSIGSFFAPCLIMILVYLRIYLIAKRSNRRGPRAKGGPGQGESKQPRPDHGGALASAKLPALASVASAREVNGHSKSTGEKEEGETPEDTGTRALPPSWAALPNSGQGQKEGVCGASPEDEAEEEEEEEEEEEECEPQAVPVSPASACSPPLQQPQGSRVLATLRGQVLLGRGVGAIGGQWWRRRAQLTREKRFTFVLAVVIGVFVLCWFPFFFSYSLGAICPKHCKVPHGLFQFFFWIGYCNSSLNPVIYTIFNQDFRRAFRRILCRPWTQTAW

HEK293 cells = test: Cell viability / cytotoxicity assay; assay type: cell-based, human; details: CellTiter-Glo, 18 h
ARα2C [3] = biological target: T2, ARα2C (Homo sapiens, UniProt P18825); test: ARα2C radioligand; assay type: binding
T2 sequence (P18825 1-462): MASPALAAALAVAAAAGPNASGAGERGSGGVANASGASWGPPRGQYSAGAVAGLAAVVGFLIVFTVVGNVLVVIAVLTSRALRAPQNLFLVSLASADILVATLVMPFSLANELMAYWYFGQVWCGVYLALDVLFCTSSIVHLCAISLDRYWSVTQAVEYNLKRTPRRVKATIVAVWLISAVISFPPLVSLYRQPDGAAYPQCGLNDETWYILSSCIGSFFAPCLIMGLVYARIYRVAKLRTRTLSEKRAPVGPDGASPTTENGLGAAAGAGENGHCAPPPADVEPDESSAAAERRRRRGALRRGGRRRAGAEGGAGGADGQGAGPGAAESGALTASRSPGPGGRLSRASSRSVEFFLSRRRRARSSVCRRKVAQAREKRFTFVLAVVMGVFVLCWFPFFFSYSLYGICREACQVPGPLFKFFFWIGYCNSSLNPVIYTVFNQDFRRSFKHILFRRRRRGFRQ

ARα2A [4] = biological target: T3, ARα2A (Homo sapiens, UniProt P08913); test: ARα2A radioligand; assay type: binding
T3 sequence (P08913 1-465): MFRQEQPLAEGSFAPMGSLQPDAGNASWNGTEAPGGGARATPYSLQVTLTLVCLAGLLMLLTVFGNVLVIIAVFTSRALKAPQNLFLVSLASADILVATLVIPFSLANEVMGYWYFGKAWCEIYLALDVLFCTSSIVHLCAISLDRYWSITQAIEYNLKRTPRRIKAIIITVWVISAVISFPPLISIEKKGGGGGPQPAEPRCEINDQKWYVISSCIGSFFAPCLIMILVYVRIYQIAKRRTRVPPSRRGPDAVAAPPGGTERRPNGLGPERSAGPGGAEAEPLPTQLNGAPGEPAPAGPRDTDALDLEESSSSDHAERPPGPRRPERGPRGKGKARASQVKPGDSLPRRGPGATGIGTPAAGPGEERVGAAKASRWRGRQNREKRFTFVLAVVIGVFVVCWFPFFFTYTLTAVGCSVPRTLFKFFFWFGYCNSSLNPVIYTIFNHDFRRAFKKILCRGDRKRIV

[5] = Aqueous solubility, shake flask method; assay type: physicochemical; details: pH 7.4, PBS, 24 h
ARα2C [6] = biological target: T2, ARα2C; test: GPCR Tango β-arrestin recruitment assay, ARα2C transfected HEK293; assay type: cell-based; details: for activation of ARα2C: agonist mode; for antagonism of ARα2C: in the presence of 300 nM norepinephrine
ARα2A [7] = biological target: T3, ARα2A; test: GPCR Tango β-arrestin recruitment assay, ARα2A transfected HEK293; assay type: cell-based; details: for activation of ARα2A: agonist mode; for antagonism of ARα2A: in the presence of 300 nM norepinephrine
ARα2B [8] = biological target: T1, ARα2B; assay type: cell-based; details: for activation of ARα2B: agonist mode; for antagonism of ARα2B: in the presence of 300 nM norepinephrine
[9] = test system: Female Swiss Webster mice; test: Open field test; assay type: in vivo; details: 40 mg kg−1 oral; 40 min after administration; n = 6
[10] = test system: Female Swiss Webster mice; test: Rotarod sensorimotor study; assay type: in vivo; details: 40 mg kg−1 oral; measured after 10, 30 and 60 minutes; n = 8
mice [11] = details: cited from earlier work; remark: listed apart in the source
[12] = Pharmacokinetic study, blood and brain; assay type: in vivo, mice; details: 40 mg kg−1 oral
[13] = ARα2A binding Ki, competition with 3H-Rauwolscinein, concentration response

For `CCC1(c2cnc[nH]2)Cc2ccccc2C1` [atipamezole], the “locomotion (OFT)” value (mice [1]; 1 mg kg−1) is given as “did not modulate locomotion”.
In the case of `Cc1ccc(Nc2ccc3c(c2)C(c2ccccc2F)=NC(C)C(=O)N3)cc1` (stereo not shown) [Compound 3, 5-(2-Fluorophenyl)-3-methyl-7-(4-methylanilino)-1,3-dihydro-2H-1,4-benzodiazepin-2-one], the pKi (ARα2B [2]) was 5.33, the inhibition at 10 µM (ARα2B [2]) was 61% and the “Cytotoxicity LD50” value (HEK293 cells) was 62 ± 15 µM. It also gave a pKi (ARα2C [3]) of 5.67 and a pKi (ARα2A [4]; [13]) of 5.64.
For `CC1N=C(c2ccccc2F)c2cc(NC(C)(C)C)ccc2NC1=O` (stereo not shown) [Compound 25, 7-(tert-Butylamino)-5-(2-fluorophenyl)-3-methyl-1,3-dihydro-2H-1,4-benzodiazepin-2-one], the inhibition at 10 µM (ARα2B [2]) was 40%, the “Cytotoxicity LD50” value (HEK293 cells) was >300 µM and the Aqueous solubility [5] was 393.6 ± 10.40 µM.
In the case of `COc1ccc(Nc2ccc3c(c2)C(c2ccccc2F)=NC(C)C(=O)N3)cc1` (stereo not shown) [Compound 4, 5-(2-Fluorophenyl)-7-(4-methoxyanilino)-3-methyl-1,3-dihydro-2H-1,4-benzodiazepin-2-one], the inhibition at 10 µM (ARα2B [2]) was 41%, the “Cytotoxicity LD50” value (HEK293 cells) was 87 ± 32 µM and the pKi (ARα2C [3]) was 5.68. It also gave a pKi (ARα2A [4]; [13]) of 5.68.
For `Cc1cccc(Nc2ccc3c(c2)C(c2ccccc2F)=NC(C)C(=O)N3)c1` (stereo not shown) [Compound 18, 5-(2-Fluorophenyl)-3-methyl-7-(3-methylanilino)-1,3-dihydro-2H-1,4-benzodiazepin-2-one], the pKi (ARα2B [2]) was 5.78, the inhibition at 10 µM (ARα2B [2]) was 87% and the “Cytotoxicity LD50” value (HEK293 cells) was 109 ± 12 µM. For the same compound, the pKi (ARα2C [3]) was 5.93 and the pKi (ARα2A [4]; [13]) was 5.68.
For `CC1N=C(c2ccccc2F)c2cc(Nc3ccc(Cl)cc3)ccc2NC1=O` (stereo not shown) [Compound 5, 7-(4-Chloroanilino)-5-(2-fluorophenyl)-3-methyl-1,3-dihydro-2H-1,4-benzodiazepin-2-one], the pKi (ARα2B [2]) was 5.85, the inhibition at 10 µM (ARα2B [2]) was 81% and the “Cytotoxicity LD50” value (HEK293 cells) was 87 ± 36 µM. It also gave a pKi (ARα2C [3]) of 5.79 and a pKi (ARα2A [4]; [13]) of 5.68.
With `CC1N=C(c2ccccc2F)c2cc(Nc3ccc(C(F)(F)F)cc3)ccc2NC1=O` (stereo not shown) [Compound 12, 5-(2-Fluorophenyl)-7-(4-trifluoromethylanilino)-3-methyl-1,3-dihydro-2H-1,4-benzodiazepin-2-one] the inhibition at 10 µM (ARα2B [2]) was 38%, the “Cytotoxicity LD50” value (HEK293 cells) was >150 µM and the pKi (ARα2A [4]; [13]) was 5.59.
With `CC1N=C(c2ccccc2F)c2cc(Nc3ccc(O)cc3)ccc2NC1=O` (stereo not shown) [Compound 10, 5-(2-Fluorophenyl)-7-((4-hydroxyphenyl)amino)-3-methyl-1,3-dihydro-2H-1,4-benzodiazepin-2-one] the pKi (ARα2B [2]) was 5.38, the inhibition at 10 µM (ARα2B [2]) was 52% and the “Cytotoxicity LD50” value (HEK293 cells) was 135 ± 26 µM. The Aqueous solubility [5] was 197.9 ± 4.04 µM.
For `COC(=O)c1ccc(Nc2ccc3c(c2)C(c2ccccc2F)=NC(C)C(=O)N3)cc1` (stereo not shown) [Compound 11, 5-(2-Fluorophenyl)-7-(4-methoxycarbonylanilino)-3-methyl-1,3-dihydro-2H-1,4-benzodiazepin-2-one], the inhibition at 10 µM (ARα2B [2]) was 44%, the “Cytotoxicity LD50” value (HEK293 cells) was 88 ± 17 µM and the pKi (ARα2C [3]) was 5.81. The pKi (ARα2A [4]; [13]) was 5.65.
For `COc1ccccc1Nc1ccc2c(c1)C(c1ccccc1F)=NC(C)C(=O)N2` (stereo not shown) [Compound 17, 5-(2-Fluorophenyl)-7-(2-methoxyanilino)-3-methyl-1,3-dihydro-2H-1,4-benzodiazepin-2-one], the “activation of ARα2C” value (ARα2C [6]) was “did not activate”, the “antagonism of ARα2C” value (ARα2C [6]) was “antagonized” and the pKi (ARα2B [2]) was 6.22. The inhibition at 10 µM (ARα2B [2]) was 91%, the “Cytotoxicity LD50” value (HEK293 cells) was 148 ± 12 µM and the pKi (ARα2C [3]) was 6.13. The pKi (ARα2A [4]; [13]) was 5.69, the “activation of ARα2A” value (ARα2A [7]) was “did not activate” and the “antagonism of ARα2A” value (ARα2A [7]) was “antagonized”. For the same compound, the “activation of ARα2B” value (ARα2B [8]) was “did not activate”, the “antagonism of ARα2B” value (ARα2B [8]) was “antagonized” and the “sedation (open field test)” value [9] was “no sedation”. The “sensorimotor inhibition on rotarod” value [10] was “did not observe any sensorimotor inhibition”.
In the case of `Cc1ccc(N(CC2=NCCN2)c2cccc(O)c2)cc1` [phentolamine], the “ability of mice to complete a rotarod exercise” value (mice [11]; 4 mg kg−1 (i.p.)) is listed as “do not usually alter the ability of mice to complete a rotarod exercise”.
For `CC1N=C(c2ccccc2F)c2cc(Nc3ccccc3)ccc2NC1=O` (stereo not shown) [Compound 2, 7-Anilino-5-(2-fluorophenyl)-3-methyl-1,3-dihydro-2H-1,4-benzodiazepin-2-one], the “activation of ARα2C” value (ARα2C [6]) was “did not activate”, the “antagonism of ARα2C” value (ARα2C [6]) was “antagonized” and the oral availability ([12]; mice) was “orally available”. The “blood : brain ratios” value ([12]; 10, 30, 60 min) was “increased over time”, the “concentration in blood and brain” value ([12]; as early as 10 min, n = 4) was “appreciable concentration of 2 in blood and brain that exceeded the affinity of 2 for the target receptor” and the pKi (ARα2B [2]) was 6.29. For the same compound, the “selectivity for α2B over the α2A subtype” value (ARα2B [2]; from Ki values) was 7.7 fold, the “selectivity for α2B over the α2C subtype” value (ARα2B [2]; from Ki values) was 2.2 fold and the inhibition at 10 µM (ARα2B [2]) was 90%. For the same compound, the “Cytotoxicity LD50” value (HEK293 cells) was 100 ± 19 µM, the pKi (ARα2C [3]) was 5.95 and the pKi (ARα2A [4]; ARα2A Ki, rounded value) was 5.41. For the same compound, the pKi (ARα2A [4]; [13]) was 5.41, the “activation of ARα2A” value (ARα2A [7]) was “did not activate” and the “antagonism of ARα2A” value (ARα2A [7]) was “antagonized”. The “activation of ARα2B” value (ARα2B [8]) was “did not activate”, the “antagonism of ARα2B” value (ARα2B [8]) was “antagonized” and the “sedation (open field test)” value [9] was “no sedation”. For the same compound, the “sensorimotor inhibition on rotarod” value [10] was “did not observe any sensorimotor inhibition”.
In the case of `CC1N=C(c2ccccc2F)c2cc(Nc3ccccc3F)ccc2NC1=O` (stereo not shown) [Compound 14, 7-(2-Fluoroanilino)-5-(2-fluorophenyl)-3-methyl-1,3-dihydro-2H-1,4-benzodiazepin-2-one], the pKi (ARα2B [2]) was 5.89, the inhibition at 10 µM (ARα2B [2]) was 82% and the “Cytotoxicity LD50” value (HEK293 cells) was 90 ± 27 µM. The pKi (ARα2C [3]) was 5.67, the pKi (ARα2A [4]; [13]) was 5.65 and the Aqueous solubility [5] was 26.0 ± 2.10 µM.
For `Cc1cccc([C@H](C)c2cnc[nH]2)c1C` [dexmedetomidine], the “ability of mice to stay on the rotating rod” value (mice [11]; i.p. doses of higher than 10 μg kg−1) is listed as “reduced the ability of mice to stay on the rotating rod” and the “activity scores (OFT)” value (mice [1]; 30 μg kg−1 (s.c.)) is listed as “significantly reduced the activity scores”.
For `CC1N=C(c2ccccc2F)c2cc(Nc3ccc([N+](=O)[O-])cc3)ccc2NC1=O` (stereo not shown) [Compound 6, 5-(2-Fluorophenyl)-3-methyl-7-(4-nitroanilino)-1,3-dihydro-2H-1,4-benzodiazepin-2-one], the inhibition at 10 µM (ARα2B [2]) was 36%, the “Cytotoxicity LD50” value (HEK293 cells) was 61 ± 10 µM and the pKi (ARα2A [4]; [13]) was 5.58.
In the case of `CSc1ccc(Nc2ccc3c(c2)C(c2ccccc2F)=NC(C)C(=O)N3)cc1` (stereo not shown) [Compound 7, 5-(2-Fluorophenyl)-3-methyl-7-((4-(methylthio)phenyl)amino)-1,3-dihydro-2H-1,4-benzodiazepin-2-one], the inhibition at 10 µM (ARα2B [2]) was 41%, the “Cytotoxicity LD50” value (HEK293 cells) was 63 ± 12 µM and the pKi (ARα2C [3]) was 5.62. The pKi (ARα2A [4]; [13]) was 5.48.
